From patent US11357811B2, “Methods to isolate anti-microbials from fruit or seed extracts” (priority 2012, dated 2022)

How the values were obtained:
vaccinia virus = format: cell-based
influenza A/H1N1 = format: cell-based
[1] = tested on: human parainfluenza 3 virus (HPIV3); experiment: antiviral testing against human parainfluenza 3 virus; format: cell-based; details: commercially available preparation; 100 ng/mL-100 μg/mL
poliovirus 1 = format: cell-based
herpes simplex virus-1 = format: cell-based
[2] = at 1-100 μg/mL

Row | Compound | anti-viral activity against vaccinia virus (vaccinia virus) | anti-viral activity against influenza A/California/July/2009 (H1N1) (influenza A/H1N1) | anti-viral activity against parainfluenza virus-3 [1] | anti-viral activity against poliovirus Sabin-1 (poliovirus 1) | anti-viral activity against herpes simplex virus-1 (herpes simplex virus-1) | influenza A/H1N1 inhibition by hemagglutination read-out (influenza A/H1N1) | anti-viral activity against vaccinia virus (in words) (vaccinia virus) | toxicity [2]
1 | COc1cc(C=CC(=O)O)cc(OC)c1O (stereo in doubt) [sinapinic acid] | None of the compounds showed anti-viral activity | None of the compounds showed anti-viral activity | None of the compounds showed anti-viral activity | None of the compounds showed anti-viral activity | None of the compounds showed anti-viral activity |  |  | 
2 | CCOC(=O)C1=C[C@@H](OC(CC)CC)[C@H](NC(C)=O)[C@@H](N)C1 [Tamiflu] |  |  |  |  |  | effective viral inhibition |  | 
3 | O=c1c(O[C@@H]2O[C@H](CO)[C@H](O)[C@H](O)[C@H]2O)c(-c2cc(O)c(O)c(O)c2)oc2cc(O)cc(O)c12 [myricetin-beta-3-galactoside] | None of the compounds showed anti-viral activity | None of the compounds showed anti-viral activity | None of the compounds showed anti-viral activity | None of the compounds showed anti-viral activity | None of the compounds showed anti-viral activity |  |  | 
4 | Oc1cc(O)c2c(c1)O[C@@]1(c3ccc(O)c(O)c3)Oc3cc(O)c4c(c3[C@@H]2[C@H]1O)O[C@H](c1ccc(O)c(O)c1)[C@H](O)C4 [procyanidin A2] | None of the compounds showed anti-viral activity | None of the compounds showed anti-viral activity | None of the compounds showed anti-viral activity | None of the compounds showed anti-viral activity | None of the compounds showed anti-viral activity |  |  | 
5 | O=c1c(O[C@@H]2O[C@H](CO)[C@H](O)[C@H](O)[C@H]2O)c(-c2ccc(O)c(O)c2)oc2cc(O)cc(O)c12 [quercetin-β-3-galactoside] |  |  |  |  |  |  | core) was found to be inactive. | 
6 | CC(C)[C@]12O[C@H]1[C@@H]1O[C@]13[C@]1(O[C@H]1C[C@H]1C4=C(CC[C@@]13C)C(=O)OC4)[C@@H]2O [triptolide] | None of the compounds showed anti-viral activity | None of the compounds showed anti-viral activity | None of the compounds showed anti-viral activity | None of the compounds showed anti-viral activity | None of the compounds showed anti-viral activity |  |  | toxic
